The target of data set [1] is T1, PDE11A4 (Homo sapiens, UniProt Q9HCR9).
T1 construct: His-tag (N); made in house; host or cells: Sf21 insect cells (baculovirus)
Briefly: PDE11A4 scintillation proximity assay (SPA), inhibition of [3H]-cGMP hydrolysis. It counts as biochemical. As to conditions: 0.4 μM [3H]-cGMP, 1 ng PDE11A4, RT 1 h, His-tagged recombinant enzyme. (In general: SPA uses beads or plates that emit light when radiolabelled molecules are held near them.)
Method: Effect of IBMX and dipyridamole was tested. Assays were performed in 384-well white plates in 20 μl containing the indicated concentration of inhibitor, 0.4 μM [^3H]-cGMP (0.025 μCi/well) and 1 ng PDE11A4 in 50 mM Tris-HCl, pH 7.5, 8.3 mM MgCl2, 1.7 mM EGTA, 0.5 mg/ml BSA. Reaction mixtures were incubated at RT for 1 h, then quenched with 30 μl of 18 mM ZnSO4 containing 0.15 mg Yttrium SPA PDE beads. The assay plates were sealed, allowed to settle for 30 min at RT, and counted on a TopCount NTX microscintillation counter (Packard). Reactions were run in triplicate.

Data set [2] deals with T1, PDE11A4. Briefly: Lineweaver-Burk analysis of PDE11A4 SPA to determine Km for cGMP. It is filed as biochemical. As to conditions: 1 ng PDE11A4, various cGMP concentrations, RT, 0-90 min. The procedure:
FIG. 17. Lineweaver-Burk analysis to determine Km values for cGMP. Reaction mixtures (20 μl/well) containing 1 ng PDE11A4 and various concentrations of cGMP (1.25 mCi/μmol) were incubated at RT. At various time points between 0 and 90 min the reactions were stopped with 30 μl of 18 mM ZnSO4 containing 0.15 mg Yttrium SPA PDE beads. The assay plates were sealed, allowed to settle for 30 min at RT, and counted on a TopCount NTX microscintillation counter (Packard). Reactions were run in triplicate. A, Time courses of PDE11A4 reaction with various concentration of cGMP. B, Lineweaver-Burk analysis. The Km value for cGMP was determined as 0.4 μM.
Expression of recombinant PDE11A4 was examined by baculovirus expression system in Sf21 cells with or without His-tag at the N-terminus. Since both expression level and enzyme activity of the His-tagged PDE11A4 (His-PDE11A4) was much higher than those of non-tagged enzyme (FIG. 15), His-PDE11A4 was selected for further use. The maximum expression level and activity were obtained from the cells cultured 24 to 48 h after transfection. The His-PDE11A4 was successfully purified by Ni^2+-chelating column chromatography (FIG. 16). The assay was carried out in scintillation proximity assay (SPA) using cGMP as substrate. Km value for cGMP was determined to be 0.4 μM (FIG. 17). […]

The test system of data set [3] is human PDE-like enzyme. Briefly: Expression of human PDE-like enzyme by Western blotting in oligonucleotide-treated HCT116 cells. It is filed as cell-based. As to conditions: HCT116, oligonucleotide added for seven days. The procedure:
The cell line used for testing is the human colon cancer cell line HCT116. Cells are cultured in RPMI-1640 with 10-15% fetal calf serum at a concentration of 10,000 cells per milliliter in a volume of 0.5 ml and kept at 37° C. in a 95% air/5%CO2 atmosphere.
Phosphorothioate […] are synthesized on an Applied Biosystems Model 380B DNA synthesizer using phosphoroamidite chemistry. A sequence of 24 bases complementary to the nucleotides at position 1 to 24 of SEQ ID NO: 1 is used as the test oligonucleotide. As a control, another (random) sequence is used: 5′-TCAACTGACTAGATGTACATGGAC-3′. Following assembly and deprotection, oligonucleotides are ethanol-precipitated twice, dried, and suspended in phosphate buffered saline at the desired concentration. Purity of the oligonucleotides is tested by capillary gel electrophoresis and ion exchange HPLC. The purified oligonucleotides are added to the culture medium at a concentration of […] once per day for seven days.
This effect is not observed with the control oligonucleotide. After 3 to 7 days, the number of cells in the cultures is counted using an automatic cell counter. The number of cells in cultures treated with the test oligonucleotide (expressed as 100%) is compared with the number of cells in cultures treated with the control oligonucleotide.

This is an account of results in US20020103120A1, “Regulation of human phosphodiesterase-like enzyme” (priority 2000, published 2002).

Where “and” joins values, the source holds several entries; their conditions need not be identical. Equal values may be shown once.

T1 sequence (Q9HCR9 whole entry): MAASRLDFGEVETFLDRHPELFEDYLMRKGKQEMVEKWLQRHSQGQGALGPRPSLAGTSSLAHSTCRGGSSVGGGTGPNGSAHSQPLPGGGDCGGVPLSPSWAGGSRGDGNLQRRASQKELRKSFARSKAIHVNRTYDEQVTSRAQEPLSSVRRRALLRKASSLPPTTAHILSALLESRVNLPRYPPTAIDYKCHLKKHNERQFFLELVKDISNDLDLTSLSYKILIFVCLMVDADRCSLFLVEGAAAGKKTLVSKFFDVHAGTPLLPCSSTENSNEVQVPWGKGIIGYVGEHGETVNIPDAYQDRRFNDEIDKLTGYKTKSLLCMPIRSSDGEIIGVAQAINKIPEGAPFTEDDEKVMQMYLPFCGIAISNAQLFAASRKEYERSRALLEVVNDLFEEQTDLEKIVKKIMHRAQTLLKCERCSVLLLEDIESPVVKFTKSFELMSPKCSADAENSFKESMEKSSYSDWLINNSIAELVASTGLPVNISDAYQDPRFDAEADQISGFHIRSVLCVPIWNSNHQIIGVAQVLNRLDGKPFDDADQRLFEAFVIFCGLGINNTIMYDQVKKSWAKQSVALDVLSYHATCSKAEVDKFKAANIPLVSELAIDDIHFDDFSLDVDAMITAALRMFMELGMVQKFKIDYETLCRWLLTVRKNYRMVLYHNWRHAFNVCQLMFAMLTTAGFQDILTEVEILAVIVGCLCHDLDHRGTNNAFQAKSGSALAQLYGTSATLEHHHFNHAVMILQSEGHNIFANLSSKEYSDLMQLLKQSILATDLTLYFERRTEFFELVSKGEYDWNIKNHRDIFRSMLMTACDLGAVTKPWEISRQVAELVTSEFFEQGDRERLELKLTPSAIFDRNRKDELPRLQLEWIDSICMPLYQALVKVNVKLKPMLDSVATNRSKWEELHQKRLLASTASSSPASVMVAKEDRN

For orientation: IC50 means the concentration that gives 50% inhibition. As for `CC(C)Cn1c(=O)n(C)c(=O)c2[nH]cnc21` [IBMX], in data set [1], the IC50 is 41 µM and 41.3 µM. As usually defined, the Km is the concentration of substrate that gives half-maximal velocity. Turning to `Nc1nc2c(ncn2[C@@H]2O[C@@H]3COP(=O)(O)O[C@H]3[C@H]2O)c(=O)[nH]1` [cGMP], the Km in data set [2] turned out to be 0.4 µM. In the case of “control oligonucleotide: control (random) sequence 5′-TCAACTGACTAGATGTACATGGAC-3′ (DNA TCAACTGACTAGATGTACATGGAC; chemistry not given here)”, the “expression of human PDE-like enzyme (Western blotting)” value in data set [3] is “not observed”.
